We go through three compounds from patent US20250388554A1, “ANTIBACTERIAL COMPOUNDS, METHOD OF PRODUCTION AND USE THEREOF” (priority 2024, published 2025).

In test [1] the test system is drug resistant clinical isolate S7 (Resistant to INH). Nature of the test: Resazurin assay (REMA) / alamarBlue MIC. The format is cell-based. Particulars: Mycobacterium tuberculosis, read-out: MIC99 (S7). In general terms: Alamar Blue is a resazurin reagent that responds to reducing activity.
Test [2] concerns drug resistant clinical isolate S6 (Resistant to INH+Rifampicin). Kind of test: microbe, parasite or virus in culture. The format is cell-based. As to conditions: Mycobacterium tuberculosis, read-out: MIC99 (S6).

Values after ≈ are worked out from the molar mass of the structure shown.

In the case of `CC(N)c1ncnn1C` (stereo not shown) [SF1, 1-(2-methyl-1,2,4-triazol-3-yl)ethanamine], the MIC99 in test [1] was 250 µM (≈ 31.5 µg/mL).

With `CC(C)C(N)c1ncnn1C` (stereo not shown) [SF2, 2-methyl-1-(2-methyl-1,2,4-triazol-3-yl)propan-1-amine], the MIC99 in test [1] and in test [2] was 125 µM (≈ 19.3 µg/mL) each time.

Consider `NCCSc1ncn[nH]1` [SF3, 2-(1H-1,2,4-triazol-5-ylsulfanyl)ethanamine], for which the MIC99 in test [1] is 250 µM (≈ 36.1 µg/mL).
